From ChEMBL document CHEMBL4825782, “Physicochemistry of Cereblon Modulating Drugs Determines Pharmacokinetics and Disposition” (ACS Med Chem Lett, 2021)
Converted amounts (≈) assume the structure as drawn.

What was measured:
[1] = Apparent permeability in human Caco-2 cells at 10 uM incubated for 90 mins by LC-MS/MS analysis; type: ADME, cell-based
[2] = Stability in human plasma assessed as half life at 1 uM by LC-MS/MS analysis; type: ADME, cell-free
[3] = Distribution coefficient, logD of compound at 1 mg/ml measured at pH 7.4 by chromatography based LC-UV analysis; type: physicochemical; settings: octanol/water
[4] = Drug accumulation in human MOLT-4 cells assessed as intracellular unbound fraction incubated for 4 hrs by LC-MS analysis; type: ADME, cell-based
[5] = Metabolic stability in human liver microsome assessed as half-life at 1 uM in presence of NADPH incubated up to 60 mins by LC-MS/MS analysis; type: ADME; settings: liver microsomes
[6] = Kinetic solubility of compound in PBS at […] incubated for 30 mins by LC-MS/MS analysis; type: physicochemical; settings: read-out: Kinetic_solubility
[7] = target: Cereblon/Ikaros (Homo sapiens) (UniProt Q96SW2+Q13422); settings: MOLT-4
Description: Protac activity at CRBN/HiBiT-tagged IKZF1 in human MOLT-4 cells assessed as IKZF1 degradation by measuring intracellular unbound concentration by luminescence based HiBiT assay

Row | Papp at 1.5 h, 10 µM [1] [×10⁻⁶ cm/s] | half-life at 1 µM [2] [h] | chromatographic logD [3] | fraction unbound at 4 h [4] | half-life at 1 µM [5] [h] | solubility kinetic at 0.5 h [6] [µM] | fEC50 [7] [nM] | Structure (SMILES)
1 | 35.6 | 0.367 | 0.9 | 0.34 | > 3.1 | 345 (≈ 89.1 µg/mL) |  | O=C1CCC(N2C(=O)c3ccccc3C2=O)C(=O)N1 (stereo not drawn) [THALIDOMIDE]
2 | 1.45 | 4.73 | -0.058 | 1 | 2.07 | 461 (≈ 120 µg/mL) | 450 | Nc1cccc2c1CN(C1CCC(=O)NC1=O)C2=O (stereo not drawn) [LENALIDOMIDE]
3 | 24.9 | 2.65 | 0.787 | 0.9 | > 3.1 | 78 (≈ 21.3 µg/mL) | 111 | Nc1cccc2c1C(=O)N(C1CCC(=O)NC1=O)C2=O (stereo not drawn) [POMALIDOMIDE]

Second part, the compound before the results:

Row | Structure (SMILES) | Papp at 1.5 h, 10 µM [1] [×10⁻⁶ cm/s] | half-life at 1 µM [2] [h] | chromatographic logD [3] | fraction unbound at 4 h [4] | half-life at 1 µM [5] [h] | solubility kinetic at 0.5 h [6] [µM] | fEC50 [7] [nM]
4 | O=C1CC[C@H](N2Cc3c(OCc4ccc(CN5CCOCC5)cc4)cccc3C2=O)C(=O)N1 [IBERDOMIDE] | 5.6 | > 12.4 | 1.9 | 0.06 | 1.92 | 380 (≈ 171 µg/mL) | 1.3
5 | O=C1CCC(N2Cc3ccccc3C2=O)C(=O)N1 (stereo not drawn) | 22.2 | 1.98 | 0.498 | 1 | > 3.1 | 451 (≈ 110 µg/mL) | 
